Earlier results as cited in patent US9943555B2, “Bacteria engineered to reduce hyperphenylalaninemia” (Synlogic, Inc., priority 2015, dated 2018).

Tested on: patients / subjects with phenylketonuria

C[C@H](O)[C@H](O)[C@H]1CNc2nc(N)[nH]c(=O)c2N1 [Kuvan, tetrahydrobiopterin]
side effects: gastritis and severe allergic reactions
